System: seizures associated with Cortical Dysplasia and Cortical Brain Malformation
Assay: Open label, expanded-access program of botanically derived purified CBD: caregiver-diary seizure frequency
Format: in vivo, human patients
Set-up: reduction in atonic seizures over the treatment period / reduction in tonic seizures over the treatment period / reduction in focal seizures without impairment over the treatment period: concentration or dose not given beside the values
Conditions: for Seizure frequency: Tonic-clonic: baseline 13.0; for Seizure frequency: Myoclonic: baseline 4.0
Method: Subjects were required to be on one or more AEDs at stable doses for a minimum of two weeks prior to baseline and to have stable vagus nerve stimulation (VNS) settings and ketogenic diet ratios for a minimum of four weeks prior to baseline.
Dose was then increased weekly by 5 mg/kg/day to a goal of 20 to 25 mg/kg/day.
A maximum dose of 50 mg/kg/day could be utilised for patients who were tolerating the medication but had not achieved seizure control; these patients had further weekly titration by 5 mg/kg/day.
Modifications were made to concomitant AEDs as per clinical indication.
Seizure frequency, intensity, and duration were recorded by caregivers in a diary during a baseline period of at least 28 days. Changes in seizure frequency relative to baseline were calculated after at least 2 weeks and at defined timepoints of treatment.
Patients may be defined as responders if they had more than 50% reduction in seizure frequency compared to baseline. the percent change in seizure frequency was calculated as follows: […]
The percent change of seizure frequency may be calculated for any time interval where seizure number has been recorded. For the purpose of this example the percent change of seizure frequency for the end of the treatment period was calculated as follows: […]

C=C(C)[C@@H]1CCC(C)=C[C@H]1c1c(O)cc(CCCCC)cc1O [CBD, cannabidiol]
Seizure frequency: Atonic (Patient 1, 2 weeks, CBD 10.0 mg/kg/day, baseline 2.0): 0.0 seizures per week | Seizure frequency: Tonic-clonic (Patient 1, 2 weeks, CBD 10.0 mg/kg/day): 12.0 seizures per week | Seizure frequency: Atonic (Patient 1, 4 weeks, CBD 20.0 mg/kg/day, baseline 2.0): 1.0 seizures per week | Seizure frequency: Tonic-clonic (Patient 1, 4 weeks, CBD 20.0 mg/kg/day): 25.0 seizures per week | Seizure frequency: Atonic (Patient 1, 8 weeks, CBD 25.0 mg/kg/day, baseline 2.0): 3.0 seizures per week | Seizure frequency: Tonic-clonic (Patient 1, 8 weeks, CBD 25.0 mg/kg/day): 17.0 seizures per week | Seizure frequency: Atonic (Patient 1, 12 weeks, CBD 25.0 mg/kg/day, baseline 2.0): 1.0 seizures per week | Seizure frequency: Tonic-clonic (Patient 1, 12 weeks, CBD 25.0 mg/kg/day): 16.0 seizures per week | reduction in atonic seizures over the treatment period (Patient 1, treated for 12 weeks, vs baseline): 50% | Seizure frequency: Tonic (Patient 2, 12 weeks, CBD 5.0 mg/kg/day, baseline 140.0): 70.0 seizures per week | reduction in tonic seizures over the treatment period (Patient 2, treated for 12 weeks, vs baseline): 50% | Seizure frequency: Myoclonic (Patient 3, 4 weeks, CBD 20.0 mg/kg/day): 0.0 seizures per week | Seizure frequency: Tonic (Patient 3, 4 weeks, CBD 20.0 mg/kg/day, baseline 20.0): 4.0 seizures per week | Seizure frequency: Atonic (Patient 3, 4 weeks, CBD 20.0 mg/kg/day, baseline 24.0): 0.0 seizures per week | Seizure frequency: Myoclonic (Patient 3, 8 weeks, CBD 25.0 mg/kg/day): 0.0 seizures per week | Seizure frequency: Tonic (Patient 3, 8 weeks, CBD 25.0 mg/kg/day, baseline 20.0): 200.0 seizures per week | Seizure frequency: Atonic (Patient 3, 8 weeks, CBD 25.0 mg/kg/day, baseline 24.0): 0.0 seizures per week | Seizure frequency: Myoclonic (Patient 3, 12 weeks, CBD 14.8 mg/kg/day): 56.0 seizures per week | Seizure frequency: Tonic (Patient 3, 12 weeks, CBD 14.8 mg/kg/day, baseline 20.0): 140.0 seizures per week | Seizure frequency: Atonic (Patient 3, 12 weeks, CBD 14.8 mg/kg/day, baseline 24.0): 12.0 seizures per week | Seizure frequency: Myoclonic (Patient 3, 24 weeks, CBD 9.7 mg/kg/day): 28.0 seizures per week | Seizure frequency: Tonic (Patient 3, 24 weeks, CBD 9.7 mg/kg/day, baseline 20.0): 140.0 seizures per week | Seizure frequency: Atonic (Patient 3, 24 weeks, CBD 9.7 mg/kg/day, baseline 24.0): 12.0 seizures per week | Seizure frequency: Myoclonic (Patient 3, 36 weeks, CBD 10.9 mg/kg/day): 0.0 seizures per week | Seizure frequency: Tonic (Patient 3, 36 weeks, CBD 10.9 mg/kg/day, baseline 20.0): 60.0 seizures per week | Seizure frequency: Atonic (Patient 3, 36 weeks, CBD 10.9 mg/kg/day, baseline 24.0): 16.0 seizures per week | Seizure frequency: Myoclonic (Patient 3, 48 weeks, CBD 10.6 mg/kg/day): 20.0 seizures per week | Seizure frequency: Tonic (Patient 3, 48 weeks, CBD 10.6 mg/kg/day, baseline 20.0): 40.0 seizures per week | Seizure frequency: Atonic (Patient 3, 48 weeks, CBD 10.6 mg/kg/day, baseline 24.0): 8.0 seizures per week | Seizure frequency: Myoclonic (Patient 3, 60 weeks, CBD 17.1 mg/kg/day): 1.0 seizures per week | Seizure frequency: Tonic (Patient 3, 60 weeks, CBD 17.1 mg/kg/day, baseline 20.0): 28.0 seizures per week | Seizure frequency: Atonic (Patient 3, 60 weeks, CBD 17.1 mg/kg/day, baseline 24.0): 1.0 seizures per week | Seizure frequency: Myoclonic (Patient 3, 72 weeks, CBD 16.2 mg/kg/day): 1.0 seizures per week | Seizure frequency: Tonic (Patient 3, 72 weeks, CBD 16.2 mg/kg/day, baseline 20.0): 40.0 seizures per week | Seizure frequency: Atonic (Patient 3, 72 weeks, CBD 16.2 mg/kg/day, baseline 24.0): 1.0 seizures per week | Seizure frequency: Myoclonic (Patient 3, 96 weeks, CBD 24.5 mg/kg/day): 16.0 seizures per week | Seizure frequency: Tonic (Patient 3, 96 weeks, CBD 24.5 mg/kg/day, baseline 20.0): 28.0 seizures per week | Seizure frequency: Atonic (Patient 3, 96 weeks, CBD 24.5 mg/kg/day, baseline 24.0): 2.0 seizures per week | Seizure frequency: Myoclonic (Patient 3, 120 weeks, CBD 17.7 mg/kg/day): 16.0 seizures per week | Seizure frequency: Tonic (Patient 3, 120 weeks, CBD 17.7 mg/kg/day, baseline 20.0): 6.0 seizures per week | Seizure frequency: Atonic (Patient 3, 120 weeks, CBD 17.7 mg/kg/day, baseline 24.0): 4.0 seizures per week | Seizure frequency: Myoclonic (Patient 3, 132 weeks, CBD 17.3 mg/kg/day): 16.0 seizures per week | Seizure frequency: Tonic (Patient 3, 132 weeks, CBD 17.3 mg/kg/day, baseline 20.0): 6.0 seizures per week | Seizure frequency: Atonic (Patient 3, 132 weeks, CBD 17.3 mg/kg/day, baseline 24.0): 4.0 seizures per week | Seizure frequency: Myoclonic (Patient 3, 144 weeks, CBD 19.9 mg/kg/day): 40.0 seizures per week | Seizure frequency: Tonic (Patient 3, 144 weeks, CBD 19.9 mg/kg/day, baseline 20.0): 56.0 seizures per week | Seizure frequency: Atonic (Patient 3, 144 weeks, CBD 19.9 mg/kg/day, baseline 24.0): 2.0 seizures per week | reduction in atonic seizures over the treatment period (Patient 3, treated for 144 weeks, vs baseline): 91.7% | Seizure frequency: Tonic (Patient 4, 4 weeks, CBD 20.0 mg/kg/day, baseline 196.0): 60.0 seizures per week | Seizure frequency: Tonic (Patient 4, 8 weeks, CBD 25.0 mg/kg/day, baseline 196.0): 40.0 seizures per week | Seizure frequency: Tonic (Patient 4, 12 weeks, CBD 30.0 mg/kg/day, baseline 196.0): 80.0 seizures per week | Seizure frequency: Tonic (Patient 4, 24 weeks, CBD 50.0 mg/kg/day, baseline 196.0): 24.0 seizures per week | Seizure frequency: Tonic (Patient 4, 36 weeks, CBD 50.0 mg/kg/day, baseline 196.0): 32.0 seizures per week | Seizure frequency: Tonic (Patient 4, 48 weeks, CBD 50.0 mg/kg/day, baseline 196.0): 54.0 seizures per week | Seizure frequency: Tonic (Patient 4, 60 weeks, CBD 50.0 mg/kg/day, baseline 196.0): 24.0 seizures per week | Seizure frequency: Tonic (Patient 4, 72 weeks, CBD 49.0 mg/kg/day, baseline 196.0): 24.0 seizures per week | Seizure frequency: Tonic (Patient 4, 84 weeks, CBD 46.0 mg/kg/day, baseline 196.0): 36.0 seizures per week

Source: US12708632B2 (Jazz Pharmaceuticals Research UK Limited, priority 2020, dated 2026)
